Test results reported in patent publication EP1215212A2, “Dihydro derivatives of LL-E33288 antibiotics” (priority 1987, dated 1988).

Tests used:
Assay type in all cases: cell-based
Acinetobacter sp = assay: Agar dilution MIC (Table II); conditions: inoculum 1 to 5 x 10^4 CFU, about 18 hours, 35°C
Method: (§1) The in vitro antibacterial activity of dihydro LL-E33288gamma l-I was determined against a spectrum of gram-positive and gram-negative bacteria by a standard agar dilution method. Mueller-Hinton agar containing two-fold decreasing concentrations of the antibiotics was poured into petri plates. The agar surfaces were inoculated with 1 to 5 x 10^4 colony forming units of bacteria by means of a Steers replicating device.

Citrobacter diversus = assay: Agar dilution MIC (Table II); conditions: Citrobacter diversus K-82-24; inoculum 1 to 5 x 10^4 CFU; about 18 hours, 35°C
Method: as §1

Citrobacter freundii = assay: Agar dilution MIC (Table II); conditions: Citrobacter freundii IO 83-13; inoculum 1 to 5 x 10^4 CFU; about 18 hours, 35°C
Method: as §1

Enterobacter aerogenes = assay: Agar dilution MIC (Table II); conditions: Enterobacter aerogenes IO 83-44; inoculum 1 to 5 x 10^4 CFU; about 18 hours, 35°C
Method: as §1

Enterobacter cloacae = assay: Agar dilution MIC (Table II); conditions: Enterobacter cloacae CMC 84-4; inoculum 1 to 5 x 10^4 CFU; about 18 hours, 35°C
Method: as §1

Escherichia coli = assay: Agar dilution MIC (Table II); conditions: inoculum 1 to 5 x 10^4 CFU, about 18 hours, 35°C
Method: as §1

Klebsiella pneumoniae = assay: Agar dilution MIC (Table II); conditions: inoculum 1 to 5 x 10^4 CFU, about 18 hours, 35°C
Method: as §1

Morganella morganii = assay: Agar dilution MIC (Table II); conditions: Morganella morganii IO 83-18; inoculum 1 to 5 x 10^4 CFU; about 18 hours, 35°C
Method: as §1

Providencia stuartii = assay: Agar dilution MIC (Table II); conditions: Providencia stuartii CMC 83-82; inoculum 1 to 5 x 10^4 CFU; about 18 hours, 35°C
Method: as §1

Pseudomonas aeruginosa = assay: Agar dilution MIC (Table II); conditions: inoculum 1 to 5 x 10^4 CFU, about 18 hours, 35°C
Method: as §1

Serratia marcescens = assay: Agar dilution MIC (Table II); conditions: inoculum 1 to 5 x 10^4 CFU, about 18 hours, 35°C
Method: as §1

Staphylococcus aureus = assay: Agar dilution MIC (Table II); conditions: inoculum 1 to 5 x 10^4 CFU, about 18 hours, 35°C
Method: as §1

[1] = tested on: Staphylococcus epidermidis; assay: Agar dilution MIC (Table II); conditions: inoculum 1 to 5 x 10^4 CFU, about 18 hours, 35°C
Method: as §1

Streptococcus faecalis = assay: Agar dilution MIC (Table II); conditions: inoculum 1 to 5 x 10^4 CFU, about 18 hours, 35°C
Method: as §1

E. coli-lambda lysogen = assay: Biochemical Induction Assay (BIA), modified; conditions: ability to directly or indirectly initiate DNA damage
Source text: The LL-E33288 antibiotics are active against gram-positive and gram-negative bacteria. Each of the components were also found to be active in a modification of the Biochemical Induction Assay [Elespuru, R. and Yarmolinsky, M., Environmental Mutagenesis, 1, 65-78 […]], a test which specifically measures the ability of an agent to directly or indirectly initiate DNA damage. In this assay, both LL-E33288γ1-I and LL-E33288δ1-I were active at concentrations lower than 1x10^-6 mcg/ml.
This pseudoaglycone is also active as an antitumor agent as determined in the Biochemical Induction Assay (BIA), a bacterial assay system which specifically measures the ability of an agent to directly or indirectly initiate DNA damage. The indicator organism for this test is an E. coli-lambda lysogen, genetically constructed such that a DNA damaging event results in the expression of the gene for the enzyme β-galactosidase. This enzyme can be determined qualitatively or quantitatively by biochemical assay as an indication that DNA damage has occurred.
A modified version of the quantitative liquid BIA disclosed by Elespuru, R. and Yarmolinsky, M., Environmental Mutagenesis, 1, 65 (1979) was used to evaluate these compounds.

Dihydro-LL-E33288γ1-I [Dihydro-LL-E33288gamma1-I]
Minimal Inhibitory Concentration (Acinetobacter sp; Acinetobacter sp CMC 83-89): 2 µg/mL | Minimal Inhibitory Concentration (Acinetobacter sp; Acinetobacter sp IO 83-49): >2 µg/mL | Minimal Inhibitory Concentration (Citrobacter diversus): 2 µg/mL | Minimal Inhibitory Concentration (Citrobacter freundii): 2 µg/mL | Minimal Inhibitory Concentration (Enterobacter aerogenes): 2 µg/mL | Minimal Inhibitory Concentration (Enterobacter cloacae): 2 µg/mL | Minimal Inhibitory Concentration (Escherichia coli; Escherichia coli ATCC 25922): 1 µg/mL | Minimal Inhibitory Concentration (Escherichia coli; Escherichia coli CMC 84-11): 2 µg/mL | Minimal Inhibitory Concentration (Escherichia coli; Escherichia coli No. 311(MP)): 2 µg/mL | Minimal Inhibitory Concentration (Klebsiella pneumoniae; Klebsiella pneumoniae AD(MP)): 1 µg/mL | Minimal Inhibitory Concentration (Klebsiella pneumoniae; Klebsiella pneumoniae CMC 84-5): >2 µg/mL | Minimal Inhibitory Concentration (Morganella morganii): 1 µg/mL | Minimal Inhibitory Concentration (Providencia stuartii): 2 µg/mL | Minimal Inhibitory Concentration (Pseudomonas aeruginosa; Pseudomonas aeruginosa 12-4-4(MP)): 2 µg/mL | Minimal Inhibitory Concentration (Pseudomonas aeruginosa; Pseudomonas aeruginosa ATCC 27853): 2 µg/mL | Minimal Inhibitory Concentration (Serratia marcescens; Serratia marcescens CMC 83-27): 2 µg/mL | Minimal Inhibitory Concentration (Serratia marcescens; Serratia marcescens F-35(MP)): 2 µg/mL | Minimal Inhibitory Concentration (Staphylococcus aureus; Staphylococcus aureus ATCC 25923): 0.06 µg/mL | Minimal Inhibitory Concentration (Staphylococcus aureus; Staphylococcus aureus SSC 82-20): 0.06 µg/mL | Minimal Inhibitory Concentration (Staphylococcus aureus; Staphylococcus aureus SSC 82-21): 0.004 µg/mL | Minimal Inhibitory Concentration (Staphylococcus aureus; Staphylococcus aureus SSC 82-23): 0.008 µg/mL | Minimal Inhibitory Concentration (Staphylococcus aureus; Staphylococcus aureus SSC 82-24): 0.002 µg/mL | Minimal Inhibitory Concentration (Staphylococcus aureus; Staphylococcus aureus SSC 82-54): 0.06 µg/mL | Minimal Inhibitory Concentration (Staphylococcus aureus; Staphylococcus aureus Smith(MP)): 0.004 µg/mL | Minimal Inhibitory Concentration ([1]; Staphylococcus epidermidis ATCC 12228): 0.015 µg/mL | Minimal Inhibitory Concentration ([1]; Staphylococcus epidermidis CMC 83-133): 0.015 µg/mL | Minimal Inhibitory Concentration (Streptococcus faecalis; Streptococcus faecalis ATCC 29212): 0.001 µg/mL | Minimal Inhibitory Concentration (Streptococcus faecalis; Streptococcus faecalis CMC 83-53): 0.015 µg/mL | Minimal Inhibitory Concentration (Streptococcus faecalis; Streptococcus faecalis IO 83-28): 0.015 µg/mL

CCN[C@H]1CO[C@@H](O[C@H]2[C@H](O[C@H]3C#CC=CC#C[C@@]4(O)CC(=O)C(NC(=O)OC)=C3/C4=C\CSSSC)O[C@H](C)[C@@H](NO[C@H]3C[C@H](O)[C@H](SC(=O)c4c(C)c(I)c(O[C@@H]5O[C@@H](C)[C@H](O)[C@@H](OC)[C@H]5O)c(OC)c4OC)[C@@H](C)O3)[C@@H]2O)C[C@@H]1OC (stereo in doubt) [LL-E33288γ1-I]
active at concentrations (E. coli-lambda lysogen): lower than 1x10^-6 mcg/ml
